Legend:
[1] = target: T1, recombinant human ALK5 (TGF-βR1) protein (Homo sapiens, UniProt P36897); experiment: Biochemical ALK5 (TGF-βR1) assay to measure pKi (LANCE Ultra ULight kinase assay); settings: apparent pKi, converted from pIC50 by Cheng-Prusoff
T1 construct: purchased Life Technologies PR9075A
T1 sequence (P36897 34-503): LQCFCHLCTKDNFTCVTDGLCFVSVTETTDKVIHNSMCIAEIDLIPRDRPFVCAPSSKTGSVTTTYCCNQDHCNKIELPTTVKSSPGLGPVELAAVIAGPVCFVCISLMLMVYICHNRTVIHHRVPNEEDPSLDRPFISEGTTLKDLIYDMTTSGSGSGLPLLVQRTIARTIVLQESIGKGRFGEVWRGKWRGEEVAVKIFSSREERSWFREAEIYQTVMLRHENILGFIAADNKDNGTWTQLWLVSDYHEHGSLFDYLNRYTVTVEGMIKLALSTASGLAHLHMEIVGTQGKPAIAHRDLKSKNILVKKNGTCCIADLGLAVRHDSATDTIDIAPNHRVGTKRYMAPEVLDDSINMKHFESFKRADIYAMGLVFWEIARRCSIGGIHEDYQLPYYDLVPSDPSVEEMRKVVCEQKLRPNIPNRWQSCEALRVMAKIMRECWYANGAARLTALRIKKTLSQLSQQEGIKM
Procedure, shortened: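 Europium TR-FRET kinase assay: the enzyme is exposed to compound for 60 min at room temperature, and reaction with ATP runs 60 min at 37 °C. Percent inhibition relative to DMSO and SD-208 controls gives pIC50, which is converted to pKi.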

[2] = test system: TGF-β-stimulated SMAD3 phosphorylation in BEAS-2B cells; experiment: Cellular ALK5 potency assay, inhibition of TGF-β stimulated pSMAD3 formation in BEAS-2B cells; assay type: cell-based; settings: Homo sapiens, pSMAD3, TGF-β 10 ng/mL, read-out: BEAS2B pIC50 (converted)
Procedure, shortened: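 Read-out is AlphaLISA detection of phospho-SMAD3 in lysates of BEAS-2B human lung epithelial cells. Cells are exposed to compound for 1 hour, then to 10 ng/mL TGF-β (final) for 30 minutes. Values are pIC50 from concentration–response curves.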

SMILES | Ki [1] [nM] | IC50 [2] [nM]
Cc1cccc(-c2nccc(Nc3ccnc(Nc4csc(C(=O)NCC5(CO)CNC5)c4)n3)n2)n1 [Compound 378, N-[[3-(hydroxymethyl)azetidin-3-yl]methyl]-4-[[4-[[2-(6-methyl-2-pyridyl)pyrimidin-4-yl]amino]pyrimidin-2-yl]amino]thiophene-2-carboxamide] | ≤ 0.0316 | 25.1 to 158
CNC1CCN(c2ccc(Nc3nccc(Nc4ccnc(-c5cc(O)ccc5C)n4)n3)cc2)CC1 [Compound 379, 4-methyl-3-[4-[[2-[4-[4-(methylamino)-1-piperidyl]anilino]pyrimidin-4-yl]amino]pyrimidin-2-yl]phenol] | 0.398 to 3.16 | 200 to 1260
Cc1cccc(-c2nccc(Nc3ccnc(Nc4ccc(N5CCN(CC6CNC6)CC5)cc4)n3)n2)n1 [Compound 380, N2-[4-[4-(azetidin-3-ylmethyl)piperazin-1-yl]phenyl]-N4-[2-(6-methyl-2-pyridyl)pyrimidin-4-yl]pyrimidine-2,4-diamine] | 0.0398 to 0.316 | 25.1 to 158
Cc1cccc(-c2nccc(Nc3ccnc(Nc4ccc(CN5CCCC(C(=O)OC6CCNCC6)C5)cc4)n3)n2)n1 (centres unmarked) [Compound 383, 4-piperidyl 1-[[4-[[4-[[2-(6-methyl-2-pyridyl)pyrimidin-4-yl]amino]pyrimidin-2-yl]amino]phenyl]methyl] piperidine-3-carboxylate] | 0.0398 to 0.316 | 25.1 to 158
Cc1cccc(-c2nccc(Nc3ccnc(Nc4ccc(F)c(CN5C6CCC5CNC6)c4)n3)n2)n1 [Compound 384, N2-[3-(3,8-diazabicyclo[3.2.1]octan-8-ylmethyl)-4-fluoro-phenyl]-N4-[2-(6-methyl-2-pyridyl)pyrimidin-4-yl]pyrimidine-2,4-diamine] | 0.0398 to 0.316 | 25.1 to 158
Cc1cccc(-c2nccc(Nc3ccnc(Nc4cccc(NC(=O)CC5CNC5)c4)n3)n2)n1 [Compound 385, 2-(azetidin-3-yl)-N-[3-[[4-[[2-(6-methyl-2-pyridyl)pyrimidin-4-yl]amino]pyrimidin-2-yl]amino]phenyl]acetamide] | ≤ 0.0316 | 25.1 to 158
Cc1cccc(-c2nccc(Nc3ccnc(Nc4csc(C(=O)O)c4)n3)n2)n1 [Compound 386, 4-[[4-[[2-(6-methyl-2-pyridyl)pyrimidin-4-yl]amino]pyrimidin-2-yl]amino]thiophene-2-carboxylic acid] | 0.398 to 3.16 | 1580 to 10000
Cc1cccc(-c2nccc(Nc3ccnc(Nc4ccc(C(=O)NC5CNC5)cc4)n3)n2)n1 [Compound 387, N-(azetidin-3-yl)-4-[[4-[[2-(6-methyl-2-pyridyl)pyrimidin-4-yl]amino]pyrimidin-2-yl]amino]benzamide] | 0.0398 to 0.316 | ≤ 20
Cc1cccc(-c2nccc(Nc3ccnc(Nc4cc(C(=O)N5CCNCC5)cs4)n3)n2)n1 [Compound 389, [5-[[4-[[2-(6-methyl-2-pyridyl)pyrimidin-4-yl]amino]pyrimidin-2-yl]amino]-3-thienyl]-piperazin-1-yl-methanone] | 0.0398 to 0.316 | 25.1 to 158
Cc1cccc(-c2nccc(Nc3ccnc(Nc4cnn(CCC5CCNCC5)c4)n3)n2)n1 [Compound 390, N4-[2-(6-methyl-2-pyridyl)pyrimidin-4-yl]-N2-[1-[2-(4-piperidyl)ethyl]pyrazol-4-yl]pyrimidine-2,4-diamine] | 0.0398 to 0.316 | 200 to 1260
Cc1cccc(-c2nccc(Nc3ccnc(Nc4ccc(N5CCC(N(C)CC(C)C)CC5)cc4)n3)n2)n1 [Compound 393, N2-[4-[4-[isobutyl(methyl)amino]-1-piperidyl]phenyl]-N4-[2-(6-methyl-2-pyridyl)pyrimidin-4-yl]pyrimidine-2,4-diamine] | 0.0398 to 0.316 | 25.1 to 158
Cc1cccc(-c2nccc(Nc3ccnc(Nc4ccc(N5CCC(N(C)C)CC5)cc4)n3)n2)n1 [Compound 394, N2-[4-[4-(dimethylamino)-1-piperidyl]phenyl]-N4-[2-(6-methyl-2-pyridyl)pyrimidin-4-yl]pyrimidine-2,4-diamine] | 0.0398 to 0.316 | 200 to 1260
Cc1cccc(-c2nccc(Nc3ccnc(Nc4cccc(C(=O)N5CCN(C)CC5)c4)n3)n2)n1 [Compound 396, (4-methylpiperazin-1-yl)-[3-[[4-[[2-(6-methyl-2-pyridyl)pyrimidin-4-yl]amino]pyrimidin-2-yl]amino]phenyl]methanone] | 0.398 to 3.16 | 25.1 to 158
Cc1cccc(-c2nccc(Nc3ccnc(Nc4ccc(N5CCC(N6CCOCC6)CC5)cc4)n3)n2)n1 [Compound 397, N4-[2-(6-methyl-2-pyridyl)pyrimidin-4-yl]-N2-[4-(4-morpholino-1-piperidyl)phenyl]pyrimidine-2,4-diamine] | 0.0398 to 0.316 | 25.1 to 158
Fc1ccc(Cl)cc1-c1nccc(Nc2ccnc(Nc3ccc(N4CCNCC4)cc3)n2)n1 [Compound 398, N4-[2-(5-chloro-2-fluoro-phenyl)pyrimidin-4-yl]-N2-(4-piperazin-1-ylphenyl)pyrimidine-2,4-diamine] | 0.0398 to 0.316 | 25.1 to 158

Further lines, with some results ahead:

Ki [1] [nM] | SMILES | IC50 [2] [nM]
0.0398 to 0.316 | Cc1cccc(-c2nccc(Nc3ccnc(Nc4ccc(CN5C[C@H](C)NC[C@H]5C)cc4)n3)n2)n1 [Compound 376, N2-[4-[[(2R,5S)-2,5-dimethylpiperazin-1-yl]methyl]phenyl]-N4-[2-(6-methyl-2-pyridyl)pyrimidin-4-yl]pyrimidine-2,4-diamine] | 25.1 to 158
0.0398 to 0.316 | Cc1cccc(-c2nccc(Nc3ccnc(Nc4ccc(CN5CCCNCC5)cc4)n3)n2)n1 [Compound 377, N2-[4-(1,4-diazepan-1-ylmethyl)phenyl]-N4-[2-(6-methyl-2-pyridyl)pyrimidin-4-yl]pyrimidine-2,4-diamine] | 25.1 to 158
0.0398 to 0.316 | Cc1cccc(-c2nccc(Nc3ccnc(Nc4ccc(Cl)c(CN5C[C@@H](C)N[C@@H](C)C5)c4)n3)n2)n1 [Compound 381, N2-[4-chloro-3-[[rac-(3R,5S)-3,5-dimethylpiperazin-1-yl]methyl]phenyl]-N4-[2-(6-methyl-2-pyridyl)pyrimidin-4-yl]pyrimidine-2,4-diamine] | 25.1 to 158
0.398 to 3.16 | Cc1cccc(-c2nccc(Nc3ccnc(Nc4ccc(CO)cc4)n3)n2)n1 [Compound 388, [4-[[4-[[2-(6-methyl-2-pyridyl)pyrimidin-4-yl]amino]pyrimidin-2-yl]amino]phenyl]methanol] | ≤ 20
0.398 to 3.16 | Cc1cccc(-c2nccc(Nc3ccnc(Nc4nc(CN5C[C@@H](C)N[C@@H](C)C5)cs4)n3)n2)n1 [Compound 391, N4-[2-(6-methyl-2-pyridyl)pyrimidin-4-yl]-N2-[4-[[rac-(3R,5S)-3,5-dimethylpiperazin-1-yl]methyl]thiazol-2-yl]pyrimidine-2,4-diamine] | 25.1 to 158
0.0398 to 0.316 | Cc1cccc(-c2nccc(Nc3ccnc(Nc4ccc(CN5CC(OCCO)C5)cc4)n3)n2)n1 [Compound 392, 2-[1-[[4-[[4-[[2-(6-methyl-2-pyridyl)pyrimidin-4-yl]amino]pyrimidin-2-yl]amino]phenyl]methyl]azetidin-3-yl]oxyethanol] | 25.1 to 158
0.0398 to 0.316 | Cc1cccc(-c2nccc(Nc3ccnc(Nc4ccc(CN5CC6CCC(C5)O6)cc4)n3)n2)n1 [Compound 395, N4-[2-(6-methyl-2-pyridyl)pyrimidin-4-yl]-N2-[4-(8-oxa-3-azabicyclo[3.2.1]octan-3-ylmethyl)phenyl]pyrimidine-2,4-diamine] | 25.1 to 158
